From publication PMC10847043, “Engineered probiotic overcomes pathogen defences using signal interference and antibiotic production to treat infection in mice” (Nature Microbiology, 2024)

System: GAS
Assay: time-dependent killing (bactericidal) assay
Assay type: cell-based, Streptococcus pyogenes
Conditions: 10× MIC; exponential phase GAS
Procedure: GAS grown to exponential phase was diluted to 10^5 CFUs ml^−1. […] A 100-µl aliquot was collected at each timepoint, cells were centrifuged and pellets were resuspended in 100 µl phosphate-buffered saline (PBS). Cells were serially diluted and plated on blood agar plates. After overnight incubation at 37 °C, CFUs were enumerated and reported as CFUs ml^−1. […] Bactericidal assays were performed in biological triplicate.

SMILES: CC1(C)S[C@@H]2[C@H](NC(=O)Cc3ccccc3)C(=O)N2[C@H]1C(=O)O [penicillin G]
- killing of GAS, in words: complete killing
